The assay deals with Hek-PSMA cells. Description: ADCC reporter assay with polyclonal human IgG, column step (Figure 3). In kind it is cell-based. The following applies: 50 μM compound with 230 μM human IgG 72 h, column washing step. The procedure:
Next, we investigated the potential ability of rhamnose cARMs and noncovalent ARM analogs to induce immune proximity with cancer targets. […] These compounds were then evaluated for their capacity to activate immune cells against PSMA cancer targets (Hek-PSMA cells) in an ADCC reporter assay (Figure 3). […] The formation of this complex may be prevented by the alkyl linker, which could adopt a fixed conformation via hydrophobic collapse.
Figure 3 ADCC reporter assay to evaluate cARM vs ARM immune function using polyclonal anti-rhamnose antibodies. Top: chemical structures of compounds evaluated. Bottom: ADCC assay. Each cARM/ARM (50 μM) was incubated with polyclonal human IgG (230 μM) for 72 h and passed through a Millipore centrifugation column. Antibody solutions were then resuspended to experimental concentrations and added to preplated Hek-P cells (50,000 cells). To this cell solution, luciferase-expressing jurkat cells were added and incubated for 24 h. Activation of jurkat was determined as a measure of luciferase expression with a BioGlo assay kit.
General Notes and Materials
ELISA - General notes and Materials […]
Plate absorbance was measured at 450 nm using a Tecan Spark Plate Reader. […]
Pre-cast Tris-Glycine Gels (4-20%) were purchased from Fisher Scientific (XP04202BOX). […] Gel fluorescence was imaged using a GE Typhoon imager (Cy2 channel for fluorescein, Cy5 channel for A647). […]

Consider `C[C@@H]1O[C@@H](OCc2cn(CCc3cn(C(=O)OCCNC(=O)CCCCCNC(=O)CCCCCNC(=O)CCCCCNC(=O)NCCCC[C@H](NC(=O)N[C@@H](CCC(=O)O)C(=O)O)C(=O)O)cn3)nn2)[C@H](O)[C@H](O)[C@H]1O` [compound 10], for which the “immune activation (jurkat luciferase)” value is recorded as “successfully mediated specific immune activation”.

Consider `C[C@@H]1O[C@@H](OCc2cn(CCCNC(=O)OCCNC(=O)CCCCCNC(=O)CCCCCNC(=O)CCCCCNC(=O)NCCCC[C@H](NC(=O)N[C@@H](CCC(=O)O)C(=O)O)C(=O)O)nn2)[C@H](O)[C@H](O)[C@H]1O` [compound 11], for which the “immune activation (jurkat luciferase)” value is “failed to induce immune activation”.
